In article PMC6680932, “Structure–Antioxidant–Antiproliferative Activity Relationships of Natural C7 and C7–C8 Hydroxylated Flavones and Flavanones” (Antioxidants, 2019):

Assays:
DU 145 (prostate cancer) = assay: Antiproliferative activity in vitro, SRB assay; type: cell-based, human; conditions: Homo sapiens, DU-145; 72 h exposure, SRB; read-out: IC50 ± SD DU 145
[1] = ABTS radical cation decolorization assay; conditions: 6 min incubation, 734 nm; mean ± SD
Protocol: The antioxidant capacity of flavonoids was measured in three separate tests: ABTS, DPPH, and ferric ion reducing antioxidant power (FRAP) assays (ABTS, DPPH, and FRAP reagents from Sigma-Aldrich). All tested compounds were dissolved in DMSO. All determinations were performed in triplicate. Standard curves were prepared for all assays using different concentrations of Trolox (6-hydroxy-2,5,7,8-tetramethylchroman-2-carboxylic acid) (Sigma-Aldrich). Trolox is a water-soluble analogue of vitamin E with high antioxidant activity, commonly used as a control and a reference in studies of antioxidant activity. The results were expressed as the equivalent of μmol Trolox per μmol of the test compound. The absorbance was measured using a UV-2401 PC spectrophotometer (Shimadzu, Kyoto, Japan). Concentrations of the tested samples were in the range from 50 µg/mL to 10 mg/mL.
The radical cation scavenging capacity of the tested compounds was examined against ABTS^+ (2,2’-azino-bis(3-ethylbenzo-thiazoline-6-sulfonic acid) according to the procedure described by Re et al. with some modifications. The test sample (30 μL) of known concentration was mixed in a polystyrene cuvette with 3 mL of ABTS solution with a measured absorption of 0.700 at a wavelength of λ = 734 nm. After 6 min of incubation, the absorption of samples was recorded. The ABTS reagent was freshly prepared before each experiment.

[2] = test system: HLMEC (lung microvascular endothelial cells); assay: Antiproliferative activity in vitro, SRB assay; type: cell-based, human; conditions: Homo sapiens, Endothelial cell; 72 h exposure, SRB; normal cell line; read-out: IC50 ± SD HLMEC
Protocol: (§1) The antiproliferative studies were performed in vitro using human cancer cell lines—MV-4-11 (biphenotypic B myelomonocytic leukemia), MCF7 (breast carcinoma), LoVo (colon cancer), LoVo/DX (colon cancer doxorubicin-resistant), and DU 145 (prostate cancer)—and normal human cell lines—MCF 10A (breast cells) and HLMEC (lung microvascular endothelial cells). The cell lines MV-4-11, LoVo, DU 145, and MCF 10A were obtained from the American Type Culture Collection (Rockville, Maryland, USA), MCF7 from the European Collection of Authenticated Cell Cultures (ECACC, Salisbury, UK), LoVo/DX courtesy of Professor E. Borowski (Technical University of Gdansk, Poland), and HLMECs (which had been already immortalized by transfection with pSV3-neoplasmid containing large T-antigen gene) were the kind gift of Professor Claudine Kieda (Center for Molecular Biophysics, Orleans, France). The cell lines are being maintained in the Hirszfeld Institute of Immunology and Experimental Therapy, Polish Academy of Sciences (HIIET, PAS), Wroclaw, Poland. All cell lines were grown at 37 °C with 5% CO2 humidified atmosphere. The MV-4-11 cells were cultured in RPMI 1640 medium with GlutaMAX (Gibco, Scotland, UK), supplemented with 1 mM sodium pyruvate and 10% fetal bovine serum (both from Sigma-Aldrich, Poznan, Poland). The MCF7 cells were cultured in Eagle medium (HIIET, PAS, Wroclaw, Poland) supplemented with 2 mM L-glutamine, 10% fetal bovine serum, 1% nonessential amino acid solution, and 0.8 mg/L of insulin (all from Sigma-Aldrich, Poznan, Poland). The LoVo and LoVo/DX cells were cultured in a 1:1 (v/v) mixture of RPMI 1640 and Opti-MEM (both HIIET, PAS, Wroclaw, Poland), supplemented with 1 mM sodium pyruvate, 2 mM L-glutamine, and 5% fetal bovine serum (all from Sigma-Aldrich, Poznan, Poland). For LoVo/DX cells, additionally 10 µg/100 mL of doxorubicin (Accord Healthcare) was added to the medium. DU 145 cells were cultured in Eagle medium (HIIET, PAS, Wroclaw, Poland) supplemented with 1 mM sodium pyruvate, 4 mM L-glutamine, and 10% fetal bovine serum (all from Sigma-Aldrich, Poznan, Poland). The MCF 10A cells were cultured in the F-12 nutrient mixture (Gibco, Scotland, UK), supplemented with 5% horse serum (Gibco, Scotland, UK), 0.05 μg/mL of cholera toxin (Vibrio cholerae), 0.5 μg/mL of hydrocortisone, 10 μg/mL of insulin, and 20 ng/mL of human epidermal growth factor (all from Sigma-Aldrich, Poznan, Poland). The HLMEC cells were cultured in the RPMI 1640 medium (HIIET, PAS, Wroclaw, Poland) with the addition of 2 mM L-glutamine (Sigma-Aldrich, Poznan, Poland) and 10% fetal bovine serum (GE Healthcare). All culture media were supplemented with 100 units/mL penicillin (Polfa Tarchomin S.A., Warsaw, Poland) and 100 µg/mL streptomycin (Sigma-Aldrich, Poznan, Poland). Twenty-four hours before addition of the tested agents, the cells were plated in 96-well plates (Sarstedt, Germany) at a density of 1 × 10^4 (1 × 10^3 for HLMEC and 0.75 × 10^4 for MCF7) cells per well in 100 μL of culture medium.
(§2) Tested compounds were dissolved in DMSO and then diluted in a 1:1 (v/v) mixture of RPMI 1640 (HIIET, PAS, Wroclaw, Poland) and Opti-MEM (Gibco, Scotland, UK) medium supplemented with 2 mM L-glutamine (Sigma-Aldrich, Poznan, Poland), 5% fetal bovine serum (GE Healthcare), 100 units/mL penicillin (Polfa Tarchomin S.A., Warsaw, Poland), and 100 µg/mL streptomycin (Sigma-Aldrich, Poznan, Poland). The antiproliferative effects of the flavonoids were examined after 72 h of exposure of the cultured cells to varying concentrations of the tested agents (from 0.1 to 100 μg/mL) using the MTT (for MV-4-11 cells) or SRB assay described below. Cisplatin (chemotherapy drug used to treat a number of cancers) was used as a positive control. The results are presented as an inhibitory concentration 50 (IC50), which is the concentration of the tested agent that inhibits proliferation of the cell population by 50%. IC50 values for each experiment were calculated separately. […]

LoVo (colon cancer) = assay: Antiproliferative activity in vitro, SRB assay; type: cell-based, human; conditions: Homo sapiens, LoVo, 72 h, 72 h exposure, SRB; read-out: IC50 ± SD LoVo
Protocol: as §1, §2

[3] = Stability of flavonoids in DMSO (control), HPLC; type: physicochemical; conditions: 3 h of incubation
Protocol: Flavonoids were dissolved (as described in Section 2.4) to the concentration of 100 µg/mL. The solutions corresponding to the solutions before the administration to the cell cultures were incubated in 96-well plates for 3 h and transferred to microtubes containing 400 µL of cold methanol (−20 °C) and kept at −20 °C for 1 h. After centrifugation at 12,000× g for 10 min, samples were analyzed by HPLC. Control experiments were also carried out to determine the stability of flavonoids in DMSO under analogous conditions.

[4] = test system: LoVo/DX (colon cancer doxorubicin-resistant); assay: Antiproliferative activity in vitro, SRB assay; type: cell-based, human; conditions: Homo sapiens, LoVo/DX, 72 h exposure, read-out: IC50 ± SD LoVo/DX

| Structure (SMILES) | IC50 (DU 145 (prostate cancer)) [µM] | TEAC ABTS [1] | IC50 [2] [µM] | IC50 (LoVo (colon cancer)) [µM] | compound observed after incubation in DMSO [3] | IC50 [4] [µM] |
| --- | --- | --- | --- | --- | --- | --- |
| O=c1cc(-c2ccc(O)cc2)oc2cc(O)cc(O)c12 [Compound 2, apigenin] | 28.9 ± 8.4 | 0.250 ± 0.014 µmol trolox per µmol of tested | 14.1 ± 0.91 | 13.8 ± 1.38 | over 99% | 11.6 ± 1.35 |
| O=C1C[C@@H](c2ccc(O)cc2)Oc2cc(O)cc(O)c21 [Compound 6, naringenin] | 242 ± 15.6 | 0.347 ± 0.020 µmol trolox per µmol of tested | 114 ± 18.6 | 121 ± 4.3 | over 99% | 129 ± 9.74 |
| O=c1cc(-c2ccc(O)cc2)oc2c(O)c(O)cc(O)c12 [Compound 10, 8-hydroxyapigenin] | – | 10.184 ± 1.768 µmol trolox per µmol of tested | 122 ± 14.4 | 235 ± 57.1 | over 99% | – |
